Read-outs that look alike come from different tables or passages of the source.
Columns and labels:
LNCaP = assay: Cell vitality (MTT assay), LNCaP; type: cell-based; settings: Homo sapiens, read-out: IC50 on cell vitality
Method: (§1) Cells were seeded in presence of FBS in 6 wells multiwell with a density of 8×10^4 cells/well (DU-145) or 1×10^5 cells/well (LNCaP). After 7 hours, cells were starved of dihydrotestosterone (DHT) for 15 hours and treated with increased concentrations of compounds for 24 or 48 hours (absence of serum was maintained during the treatments). Cell viability was assessed by MTT staining.
(§2) Phytocannabinoid BDS and their respective isolated phytocannabinoids were tested in both the hormone-insensitive (DU-145) prostate cancer cells and hormone-sensitive (LNCaP) prostate cancer cells. Three different phytocannabinoids were chosen for this experiment: CBG BDS and isolated compound, CBC BDS and isolated compound and CBD BDS and isolated compound.
(§3) The experiment was repeated in the hormone-insensitive (DU-145) prostate cancer cells and hormone-sensitive (LNCaP) prostate cancer cells that had not been starved of DHT. Here just the CBG BDS and isolated CBG are illustrated in Table 7.2 below.

DU-145 = assay: Cell vitality (MTT assay), DU-145; type: cell-based; settings: Homo sapiens
Method: as §1, §2, §3

[1] = target: T1, monoacylglyceride lipase (MAGL) (Homo sapiens, UniProt Q99685); assay: Inhibition of monoacylglyceride lipase (MAGL); type: biochemical
T1 sequence (Q99685 1-303): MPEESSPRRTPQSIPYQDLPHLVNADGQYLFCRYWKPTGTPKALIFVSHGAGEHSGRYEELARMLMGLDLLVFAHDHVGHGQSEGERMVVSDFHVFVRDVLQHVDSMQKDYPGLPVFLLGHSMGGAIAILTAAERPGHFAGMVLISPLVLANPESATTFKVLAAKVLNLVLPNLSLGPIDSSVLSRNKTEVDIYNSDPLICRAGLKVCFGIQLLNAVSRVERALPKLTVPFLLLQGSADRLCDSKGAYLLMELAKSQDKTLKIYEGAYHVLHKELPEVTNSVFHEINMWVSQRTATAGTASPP
Method: (§4) The effects of the phytocannabinoid BDS THCA, CBN, CBGA, CBDA and CBCV were tested to determine whether they were able to inhibit the MAGL and DAGL enzymes which are able to hydrolyse the endogenous cannabinoid 2-AG to arachidonic acid and glycerol. The results generated from these experiments are detailed in Table 5.1 below.
For this experiment CBG BDS was used as this BDS was the easiest to purify and reconstitute. Four different test articles were used: CBG BDS, isolated CBG, CBG-free CBG BDS and CBG reconstituted BDS, whereby the CBG-free BDS (as prepared in Example 1) was spiked with isolated CBG at the same concentration of CBG as CBG BDS. Table 5.2 below details the data obtained.

[2] = target: T2, diacylglyceride lipase (DAGL) (Homo sapiens, UniProt Q9Y4D2); assay: Inhibition of diacylglyceride lipase (DAGL); type: biochemical
T2 sequence (Q9Y4D2 1-1042): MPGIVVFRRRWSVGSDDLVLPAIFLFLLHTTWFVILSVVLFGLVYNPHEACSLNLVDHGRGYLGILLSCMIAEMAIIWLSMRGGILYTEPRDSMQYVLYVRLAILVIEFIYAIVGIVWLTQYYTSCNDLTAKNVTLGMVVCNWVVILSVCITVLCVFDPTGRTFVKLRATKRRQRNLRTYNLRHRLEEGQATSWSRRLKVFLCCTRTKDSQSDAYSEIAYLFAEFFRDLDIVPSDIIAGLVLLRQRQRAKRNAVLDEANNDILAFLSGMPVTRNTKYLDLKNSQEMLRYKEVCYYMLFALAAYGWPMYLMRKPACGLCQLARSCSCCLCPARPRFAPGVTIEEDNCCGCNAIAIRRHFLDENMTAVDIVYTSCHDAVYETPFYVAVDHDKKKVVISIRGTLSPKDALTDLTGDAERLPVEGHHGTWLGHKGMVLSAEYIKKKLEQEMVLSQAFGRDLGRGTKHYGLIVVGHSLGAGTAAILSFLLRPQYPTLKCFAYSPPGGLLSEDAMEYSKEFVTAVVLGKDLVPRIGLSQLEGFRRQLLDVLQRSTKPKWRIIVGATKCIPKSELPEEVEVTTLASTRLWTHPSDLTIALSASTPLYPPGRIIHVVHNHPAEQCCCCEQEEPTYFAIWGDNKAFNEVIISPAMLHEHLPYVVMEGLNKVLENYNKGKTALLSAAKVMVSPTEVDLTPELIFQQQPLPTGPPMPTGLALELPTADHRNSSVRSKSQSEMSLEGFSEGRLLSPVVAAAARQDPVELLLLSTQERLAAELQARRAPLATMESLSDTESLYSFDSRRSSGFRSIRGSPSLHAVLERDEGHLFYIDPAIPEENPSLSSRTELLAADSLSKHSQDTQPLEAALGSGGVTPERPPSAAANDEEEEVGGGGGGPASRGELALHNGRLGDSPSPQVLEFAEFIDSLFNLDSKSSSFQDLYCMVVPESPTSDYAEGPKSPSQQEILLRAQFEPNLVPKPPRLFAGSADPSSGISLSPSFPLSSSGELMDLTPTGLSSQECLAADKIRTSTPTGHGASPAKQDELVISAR
Method: as §4

[3] = tested on: MDA-MB-231 breast cancer cell line; assay: Cell viability of breast cancer cells (Alamar blue assay); type: cell-based; settings: 72 hours
Method: Cells were seeded in presence of FBS in 6 wells multiwell and treated with increased concentrations of compounds for 72 hours. Cell viability was assessed by Alamar blue staining.
Isolated phytocannabinoids were tested on the MDA-MB-231 breast cancer cell line in order to determine whether phytocannabinoids were effective in other types of cancer other than prostate cancer. The different isolated phytocannabinoids chosen for this experiment were: CBGA, CBDA, CBDV, CBD, THCV and THC.

GPR55 = target: T3, GPR55 (Homo sapiens, UniProt Q9Y2T6); assay: ERK Alphascreen assay using GPR55-HEK cells; type: cell-based
T3 construct: expressed in transfected cells; host or cells: HEK cells (GPR55-HEK)
T3 sequence (Q9Y2T6 whole entry, species assumed): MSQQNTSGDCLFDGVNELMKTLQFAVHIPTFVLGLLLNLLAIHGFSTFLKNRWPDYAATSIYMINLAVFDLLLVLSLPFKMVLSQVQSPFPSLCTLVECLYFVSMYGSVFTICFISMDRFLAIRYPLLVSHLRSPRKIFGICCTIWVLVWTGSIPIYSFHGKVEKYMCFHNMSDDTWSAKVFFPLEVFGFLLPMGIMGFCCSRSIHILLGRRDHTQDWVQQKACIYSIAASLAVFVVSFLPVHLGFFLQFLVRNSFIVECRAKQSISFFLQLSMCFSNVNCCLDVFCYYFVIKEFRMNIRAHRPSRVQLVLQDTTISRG
From the text: An ERK Alphascreen assay was undertaken using GPR55-HEK cells.

Glioma cells = assay: Human glioma cell vitality (MTT assay); type: cell-based; settings: read-out: IC50 on glioma cell vitality
Method: Cells were seeded in presence of FBS in 6 wells multiwell with a density of 8×10^4 cells/well. Glioma cells were treated with increased concentrations of compounds and cell viability was assessed by MTT staining.
CBD BDS and isolated CBD, CBG and CBDV were tested.

[4] = tested on: Aberrant crypt focus (ACF), polyps and tumours; assay: Colon carcinogenesis in the mouse induced by azoxymethane; type: in vivo
From the text: Aberrant crypt focus (ACF), polyps and tumours were induced in the mouse by the carcinogenic substance azoxymethane. The phytocannabinoids were given (i.p.) to the mice three times per week for a period of three months. The COX-2 inhibitor celecoxib was used as a positive control.

[5] = tested on: hormone-insensitive prostate cancer cell line (DU-145); assay: Chemioluminescence assay for caspase 3/7 release (apoptosis), DU-145; type: cell-based, human; settings: high dose (25 μM), FIG. 2
Method: (§5) Two different concentrations of cannabinoids were tested; a low dose (10 μM) and a high dose (25 μM). The chemioluminescence that were recorded for each phytocannabinoid are detailed in FIG. 2.

[6] = tested on: hormone-sensitive prostate cancer cell line (LNCaP); assay: Chemioluminescence assay for caspase 3/7 release (apoptosis), LNCaP; type: cell-based, human; settings: high dose (25 μM), FIG. 2
Method: as §5

U87 glioma cells = assay: Viability of U87 glioma cells (MTT assay), THC, CBD, TMZ alone and combined; type: cell-based, human; settings: TMZ 100 μM alone, Table 12.2
[7] = tested on: human glioma xenograft tumours; assay: Human glioma xenograft tumour volume; type: in vivo; parameters: unit not given here; settings: TMZ (100 μM) alone; Table 13.2
Method: The phytocannabinoids were also tested with the TMZ as is detailed in Table 13.2 below.

[8] = tested on: hormone sensitive LNCaP cells; settings: 24-48 hours; cited from earlier work
[9] = tested on: hormone-sensitive prostate cancer cell line (LNCaP); assay: Subcutaneous xenograft model, hormone-sensitive prostate cancer (LNCaP); type: in vivo, mice; settings: taxotere 5 mg/kg i.v. weekly, alone
Method: Cancer cells were maintained in vitro in an appropriate culture medium and were harvested, washed in culture medium and re-suspended in matrigel for ready for in vivo administration. 1-2×10^7 cells in 200 μl were injected subcutaneously into the left flank of mice. The mice were anaesthetised and a 0.5 mg 5-alpha-dihydrotestosterone pellet (21-day release) implanted subcutaneously into the scruff of each mouse to encourage tumour growth, and the wound was closed.
Once the implanted tumour volume reached between 100-200 mm (2-3 weeks) mice were allocated to their treatment groups. Treatment commenced on Day 17. The phytocannabinoid BDS was administered i.p. once daily at doses of 1, 10 & 100 mg/kg cannabinoid BDS for a further 25 days.
In a further experiment the chemotherapeutic agent taxotere (5 mg/kg) i.v. was administered weekly, alone or in combination with 100 mg/kg phytocannabinoid BDS.
Mice were evaluated daily by an experienced technician for 4-5 weeks. Tumour dimensions were recorded at day 7 (calliper measurement of length and width and tumour cross-sectional area and volume calculated) and recorded three times weekly and body weight measured weekly.

[10] = DU-145, 24 h, read-out: IC50 on cell vitality
[11] = DU-145, 48 h, read-out: IC50 on cell vitality
[12] = at 50 μM, read-out: Max concentration tested (% inhibition), MAGL
[13] = read-out: Max concentration tested (% inhibition), DAGL

CCCCCc1cc(O)c2c(c1)OC(C)(CCC=C(C)C)C=C2 (stereo not shown) [CBC, Cannabichromene]
IC50 (LNCaP; 24 h): 10.8 µM | IC50 (LNCaP; 48 h): 6 µM | IC50 (DU-145; [10]): 7.5 µM | IC50 (DU-145; [11]): 5.6 µM

CCCc1cc(O)c2c(c1)OC(C)(CCC=C(C)C)C=C2 (stereo not shown) [CBCV]
IC50 ([1]; Table 5.1, read-out: MAG IC50): > 50 µM | inhibition at 50 µM [1, 12]: 4.8% | inhibition at 50 µM [2, 13]: 18.9%

C=C(C)[C@@H]1CCC(C)=C[C@H]1c1c(O)cc(CCCCC)c(C(=O)O)c1O [CBDA, Cannabidiolic acid]
IC50 ([3]; Homo sapiens): 3.9 µM | IC50 ([1]; Table 5.1, read-out: MAG IC50): > 50 µM | inhibition at 50 µM [1, 12]: 18.5% | inhibition at 100 µM ([2]; at 100 μM, read-out: Max concentration tested (% inhibition), DAGL): 91.4% | Effect at GPR55 (GPR55): Antagonist

C=C(C)[C@@H]1CCC(C)=C[C@H]1c1c(O)cc(CCC)cc1O [CBDV, Cannabidivarin]
IC50 (Glioma cells): 12.4 µM | IC50 ([3]; Homo sapiens): 5 µM | Effect at GPR55 (GPR55): Antagonist

CCCCCc1cc(O)c(C/C=C(\C)CCC=C(C)C)c(O)c1 [CBG, Cannabigerol]
IC50 (Glioma cells): 12.4 µM | EC50 ([1]; Table 5.2, BDS vs isolated vs reconstituted): 195 µM | inhibition at 100 µM ([1]; Table 5.2, read-out: Max tested on MAGL % inhibition): 31.5% | IC50 (LNCaP; 24 h): 10.8 µM | IC50 (LNCaP; 48 h): 8.1 µM | IC50 (LNCaP): > 25 µM | protective effect against the experimentally induced colon carcinogenesis ([4]; FIG. 6 a)): most statistically significant results | formation of ACF with 4 or more crypts ([4]; FIG. 6 b)): no ACF with greater than 4 crypts | numbers of tumours per animal ([4]; i.p. three times per week for three months; FIG. 5 c), FIG. 6 c)): no tumours were produced | IC50 (DU-145; [10]): 11.8 µM | IC50 (DU-145; [11]): 5.8 µM | IC50 (DU-145; DU-145, read-out: IC50 on cell vitality): > 25 µM

CCCCCc1cc(O)c(C/C=C(\C)CCC=C(C)C)c(O)c1C(=O)O [CBGA]
IC50 [3]: 2.2 µM | IC50 ([1]; Table 5.1, read-out: MAG IC50): > 50 µM | Max concentration tested (% inhibition), MAGL ([1]; at 50 μM): (17.2%) | IC50 ([2]; Table 5.1): 30 µM | Max concentration tested (% inhibition), DAGL ([2]; at 100 μM): (67.5%) | Effect at GPR55 (GPR55): Inverse agonist

CCCc1cc(O)c(C/C=C(\C)CCC=C(C)C)c(O)c1 [CBGV, Cannabigerol propyl variant]
Effect at GPR55 (GPR55): Antagonist

CCCCCc1cc(O)c2c(c1)OC(C)(C)c1ccc(C)cc1-2 [CBN, Cannabinol]
IC50 [1]: > 50 µM | inhibition at 50 µM [1, 12]: 31.5% | inhibition at 50 µM [2, 13]: 26.9%

CCCCCc1cc2c(c(O)c1C(=O)O)[C@@H]1C=C(C)CC[C@H]1C(C)(C)O2 [THCA, Tetrahydrocannabinolic acid]
IC50 [1]: 46 µM | inhibition at 100 µM ([1]; read-out: Max concentration tested (% inhibition), MAGL): 81.9% | inhibition at 50 µM [2, 13]: 79.3%

CCCc1cc(O)c2c(c1)OC(C)(C)[C@@H]1CCC(C)=C[C@@H]21 [THCV, Tetrahydrocannabivarin]
pro-apoptotic effect (chemioluminescence, caspase 3/7 release) [5]: apotosis levels over that of the control | IC50 ([3]; Homo sapiens): 6.5 µM | Effect at GPR55 (GPR55): Antagonist (at low concentrations)

CCCc1cc2c(c(O)c1C(=O)O)[C@@H]1C=C(C)CC[C@H]1C(C)(C)O2 [THCVA, Tetrahydrocannabivarinic acid]
pro-apoptotic effect (chemioluminescence, caspase 3/7 release) [5]: highest pro-apoptotic effects | pro-apoptotic effect (chemioluminescence, caspase 3/7 release) [6]: highest pro-apoptotic effect

Cn1nnc2c(C(N)=O)ncn2c1=O [TMZ, temazolamide, reference compound]
Cell Viability (%) (U87 glioma cells): 82% | Tumour volume (increase from day 1) [7]: 4.1

Cc1c(C(=O)c2cccc3ccccc23)c2cccc3c2n1[C@H](CN1CCOCC1)CO3 [WIN-55,212-2]
inhibition of cell growth [8]: inhibition of cell growth

CC(=O)O[C@@]12CO[C@@H]1C[C@H](O)[C@@]1(C)C(=O)[C@H](O)C3=C(C)[C@@H](OC(=O)[C@H](O)[C@@H](NC(=O)OC(C)(C)C)c4ccccc4)C[C@@](O)([C@@H](OC(=O)c4ccccc4)[C@H]21)C3(C)C [taxotere]
growth rate and terminal tumour volume [9]: significantly inhibited both growth rate and terminal tumour volume

— patent US8790719B2, “Phytocannabinoids in the treatment of cancer” (GW Pharma Limited, priority 2010, dated 2014)
